The values that follow come from patent US12729393B2, “Agent interaction effects determination” (priority 2020, dated 2026).

The subject of this test is Escherichia coli reference strain K12-MG1655. The experiment in a line: CombiANT self-interaction experiments (3 reservoirs filled with the same antibiotic). The format is cell-based. Particulars: 3 biological replicates; Wilcoxon signed rank test. The text has this: FIG. 17 illustrates self-interaction experiments of the Escherichia coli reference strain K12-MG1655. FICi for all self-interactions for the 8 antibiotics AMP, CIP, CTX, GEN, FOF, NIT, MEC, TMP. Bars indicate average FICi values and standard deviation (SD) of 3 biological replicates.
First, as controls, we performed self-interaction experiments, where the 3 culture container insert reservoirs were filled with the same antibiotic. […] Next, to verify that the CombiANT™ assay produced valid synergy quantifications, we ran an accuracy and precision study. We tested all pairwise antibiotic interactions in the two Gram-negative reference strains E. coli […] and P. aeruginosa PA14, and the Gram-positive S. aureus reference strain ATCC29213 against a panel of 4 antibiotics. The tested antibiotics, ampicillin (AMP), cefotaxime (CTX), ciprofloxacin (CIP), and gentamicin (GEN), spanned three distinct mechanisms of action and are commonly used in treatments of bacteremia and sepsis caused by these bacterial species. FICi indices were calculated for all 6 pair-wise interactions and all three strains (FIG. 18A).
Turning to `CC1(C)S[C@@H]2[C@H](NC(=O)[C@H](N)c3ccccc3)C(=O)N2[C@H]1C(=O)O` [AMP, ampicillin], the “nature of self-interaction (FICi)” value is “additive”.

On to `O=C(O)c1cn(C2CC2)c2cc(N3CCNCC3)c(F)cc2c1=O` [CIP, ciprofloxacin], for which the “nature of self-interaction (FICi)” value is recorded as “additive”.

In the case of `CO/N=C(\C(=O)N[C@@H]1C(=O)N2C(C(=O)O)=C(COC(C)=O)CS[C@H]12)c1csc(N)n1` [CTX, cefotaxime], the “nature of self-interaction (FICi)” value was “additive”.

On to `C[C@@H]1O[C@@H]1P(=O)(O)O` [FOF, fosfomycin], for which the “nature of self-interaction (FICi)” value is on record as “additive”.

Take `CC1(C)S[C@@H]2[C@H](/N=C/N3CCCCCC3)C(=O)N2[C@H]1C(=O)O` [MEC, mecillinam]: the “nature of self-interaction (FICi)” value is “additive”.

For `COc1cc(Cc2cnc(N)nc2N)cc(OC)c1OC` [TMP, trimethoprim], the “nature of self-interaction (FICi)” value was “additive”.

As to gentamicin, the “nature of self-interaction (FICi)” value is “additive”.
